Measurements from patent US20260207759A1, “COMPOSITION OF CD40-BINDING MOLECULE AND PHARMACEUTICAL USE THEREOF” (SUZHOU SUNCADIA BIOPHARMACEUTICALS CO., LTD., priority 2022, published 2026).

How the values were obtained:
[1] = system: human CD40 transgenic mice; test: Mouse skin graft rejection model (anti-CD40-ADC); assay type: in vivo; conditions: 10 mpk ip, budesonide 0.12 mg/kg QD, dexamethasone 20 mpk QD
From the text: Male Balb/c mice, 6 weeks old, were purchased from the Laboratory Animal Management Department, Shanghai Institute of Planned Parenthood Research.
(§1) On day −2 of the experiment, the mice were intraperitoneally injected with the CD40 antagonistic antibody, anti-CD40-ADC, or glucocorticoid. On day 0 of the experiment, donor Balb/c mice and C57BL6/J mice were anesthetized with 4% chloral hydrate. The tails of the donor mice were removed, and full circles of skin, 1 cm in length, were isolated from the tails. The hair on the acceptor mice's back was removed, and an incision was made along the skin layer. An equal area of skin was removed while preserving the back fat and connective tissue. The donor skin was placed on the acceptor mice's incision site, and the incision was closed with glue. The mice were then placed back in cages to recover.
The mice were dosed according to the administration regimens in Table 27. After 7 days of recovery, the mouse skin survival was observed daily and rejection scores were recorded.

[2] = system: human CD40 transgenic mice; test: Mouse skin graft rejection model (antibodies, tacrolimus combination); assay type: in vivo; conditions: FK506 3 mpk, alone or combined
From the text: Male Balb/c mice, 6 weeks old, were purchased from the Laboratory Animal Management Department, Shanghai Institute of Planned Parenthood Research. Housing environment: SPF; certification number: 20180006023393.
as §1, with “On day-2” for “On day −2”, “with tacrolimus FK506 or” for “with the”, “antagonistic antibodies.” for “antagonistic antibody, anti-CD40-ADC, or glucocorticoid.”
The mice were dosed according to the administration regimens in Table 16. After 7 days of recovery, the mouse skin survival was observed daily and rejection scores were recorded.

## C[C@@H]1C[C@H]2[C@@H]3CCC4=CC(=O)C=C[C@]4(C)[C@@]3(F)[C@@H](O)C[C@]2(C)[C@@]1(O)C(=O)CO [Dexamethasone]
[1]
  Skin graft survival rate (%), 10 days: 88.9%
  Skin graft survival rate (%), 15 days: 88.9%
  Skin graft survival rate (%), 20 days: 66.7%
[1]; score 3 to 0
  Skin graft score, 10 days: 2.33
  Skin graft score, 15 days: 2
  Skin graft score, 20 days: 1.56

## C=CC[C@@H]1/C=C(\C)C[C@H](C)C[C@H](OC)[C@H]2O[C@@](O)(C(=O)C(=O)N3CCCC[C@H]3C(=O)O[C@H](/C(C)=C/[C@@H]3CC[C@@H](O)[C@H](OC)C3)[C@H](C)[C@@H](O)CC1=O)[C@H](C)C[C@@H]2OC [FK506, tacrolimus]
[2]; Table 20: antibody 10 mpk
  Day-15 skin graft survival rate (%): 16.7%
[2]; Table 22: 2F12-L4H2 10 mpk
  Skin graft score, 8 days: 2.5
  Skin graft score, 10 days: 1.5
  Skin graft score, 15 days: 0.5
  Skin graft score, 20 days: 0
